# Laboratory results from patent publication US20240000806A1, “METHODS AND MATERIALS FOR INHIBITING CB1 ACTIVITY” (University of Pittsburgh - Of the Commonwealth System of …, priority 2020, published 2024).
# pIC50: −log10 of the molar value.
# Target: CB1 (CNR1) (Homo sapiens, UniProt P21554)
# Experiment: cAMP CNR1 Hunter cell line antagonist assay (CB1 assay)
# Assay type: cell-based
# Settings: antagonist mode, cAMP CNR1 Hunter cells, EC80 agonist; read-out: CB1 assay, Efficacy (IC50)
# Procedure, shortened: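 Antagonist mode in CNR1 Hunter cells: compound preincubated 30 min at 37 °C, then EC80 agonist for 30 min at 37 °C. cAMP measured by enzyme-fragment complementation chemiluminescence after lysis (1 h) and detection (3 h, room temperature); IC50 fitted from the dose response.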
# Sequence of CB1 (CNR1) (P21554 whole entry): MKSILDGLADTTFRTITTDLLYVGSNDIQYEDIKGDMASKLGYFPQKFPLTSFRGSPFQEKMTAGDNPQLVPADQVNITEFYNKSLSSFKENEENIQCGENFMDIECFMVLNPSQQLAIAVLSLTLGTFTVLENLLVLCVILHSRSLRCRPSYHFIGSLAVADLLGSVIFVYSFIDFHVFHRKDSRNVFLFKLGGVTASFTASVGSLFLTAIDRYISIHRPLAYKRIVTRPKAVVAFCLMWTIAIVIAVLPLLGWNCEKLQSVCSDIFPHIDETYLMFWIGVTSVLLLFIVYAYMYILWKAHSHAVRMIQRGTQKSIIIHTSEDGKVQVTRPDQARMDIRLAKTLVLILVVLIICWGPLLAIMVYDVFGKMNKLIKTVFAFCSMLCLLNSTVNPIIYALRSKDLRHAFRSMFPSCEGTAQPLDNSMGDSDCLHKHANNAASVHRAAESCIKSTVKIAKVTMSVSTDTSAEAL
row,Structure (SMILES),pIC50
1,COc1ccc(NS(=O)(=O)c2cc3c(cc2Br)NC(=O)CO3)cc1 [BC19137],> 6.00
2,Cc1ccc(NS(=O)(=O)c2cc3c(cc2Cl)NC(=O)C(C)O3)cc1F (centres unmarked) [BC19700],4.60 to 6.00
3,COc1ccc(NS(=O)(=O)c2cc(Br)cc3c2OCCNC3=O)cc1 [BC19606],≤ 4.60
4,CC1Oc2c(cc(Br)cc2S(=O)(=O)NCc2ccc(C(F)(F)F)cc2)NC1=O (centres unmarked) [BC19365],4.60 to 6.00
5,CC(C)(C)C1CCC(NS(=O)(=O)c2cc3c(cc2Br)NC(=O)CO3)CC1 (centres unmarked) [BC19388],≤ 4.60
6,Cc1ccc(NS(=O)(=O)c2cc(Br)cc3c2OCCC(=O)N3)cc1Cl [BC19651],≤ 4.60
7,CS(=O)(=O)c1cc2c(c(S(=O)(=O)Nc3cccc(F)c3)c1)OCC(=O)N2 [BC19426],≤ 4.60
8,O=C1CCOc2cc(S(=O)(=O)Nc3cccc(F)c3)c(Br)cc2N1 [BC19654],≤ 4.60
9,CCc1cccc(NS(=O)(=O)c2cc(Br)cc3c2OC(C)C(=O)N3C)c1 (centres unmarked) [BC19900],≤ 4.60
10,CCC1Oc2c(cc(Br)cc2S(=O)(=O)NCc2ccccc2)NC1=O (centres unmarked) [BC19230],≤ 4.60
11,CCC1Oc2c(cc(Br)cc2S(=O)(=O)NCCc2ccc(OC(F)(F)F)cc2)NC1=O (centres unmarked) [BC19376],4.60 to 6.00
12,CCC1Oc2cc(S(=O)(=O)Nc3ccccc3)c(Br)cc2N(C)C1=O (centres unmarked) [BC19928],≤ 4.60
13,CC(C)CNS(=O)(=O)c1cc(Br)cc2c1OC(C)C(=O)N2 (centres unmarked) [BC19227],≤ 4.60
14,CCc1ccc(NS(=O)(=O)c2cc(Cl)cc3c2OC(CC)C(=O)N3)cc1 (centres unmarked) [BC19742],4.60 to 6.00
15,CC1Oc2c(cc(Cl)cc2S(=O)(=O)Nc2ccc(F)cc2F)NC1=O (centres unmarked) [BC19710],≤ 4.60
16,CCC1Oc2cc(S(=O)(=O)Nc3ccc(OC(F)(F)F)cc3)c(Cl)cc2NC1=O (centres unmarked) [BC19733],4.60 to 6.00
17,CCCNS(=O)(=O)c1cc(Br)cc2c1OC(CC)C(=O)N2 (centres unmarked) [BC19229],≤ 4.60

# Other lines, results leading:
row,pIC50,Structure (SMILES)
1,4.60 to 6.00,CC(C)c1ccc(NS(=O)(=O)c2cc3c(cc2Br)NC(=O)CCO3)cc1 [BC19691]
2,≤ 4.60,CCC1Oc2cc(S(=O)(=O)Nc3ccc(F)c(F)c3)c(Br)cc2N(C)C1=O (centres unmarked) [BC19926]
3,≤ 4.60,O=C1COc2c(cc(Br)cc2S(=O)(=O)NCc2ccc(F)cc2F)N1 [BC19386]
4,4.60 to 6.00,CC1Oc2cc(S(=O)(=O)Nc3ccc(Cl)cc3)c(Cl)cc2NC1=O (centres unmarked) [BC19696]
5,≤ 4.60,O=C1COc2c(cc(Br)cc2S(=O)(=O)NCCc2ccc(OC(F)(F)F)cc2)N1 [BC19383]
6,> 6.00,CC(=O)N1c2cc(S(=O)(=O)N3CCCC3)ccc2NC(=O)C1C (centres unmarked) [BC19182]
7,> 6.00,Cc1ccc(NS(=O)(=O)c2cc3c(cc2C)NC(=O)CO3)cc1 [BC19134]
8,4.60 to 6.00,COc1ccc(NS(=O)(=O)c2cc3c(cc2Br)NC(=O)C(CC(C)C)O3)cc1Cl (centres unmarked) [BC19780]
9,≤ 4.60,CC1Oc2cc(S(=O)(=O)NCc3ccc(F)cc3F)c(Br)cc2NC1=O (centres unmarked) [BC19356]
10,> 6.00,COc1ccc(NS(=O)(=O)c2cc3c(cc2Br)NC(=O)CO3)cc1Cl [BC19163]
11,≤ 4.60,O=C1CCOc2c(cc(Br)cc2S(=O)(=O)Nc2ccc(OC(F)(F)F)cc2)N1 [BC19648]
12,≤ 4.60,N#Cc1ccc(NS(=O)(=O)c2cc3c(cc2Br)NC(=O)CCO3)cc1 [BC19695]
13,≤ 4.60,CCC1Oc2c(cc(Br)cc2S(=O)(=O)Nc2cccc(Cl)c2)NC1=O (centres unmarked) [BC19232]
14,≤ 4.60,O=C1COc2cc(S(=O)(=O)NCc3ccc(F)cc3F)c(Br)cc2N1 [BC19393]
15,4.60 to 6.00,Cc1ccc(NS(=O)(=O)c2cc3c(cc2Br)NC(=O)C(CC(C)C)O3)cc1Cl (centres unmarked) [BC19768]
16,≤ 4.60,Cc1ccc(NS(=O)(=O)c2cc3c(cc2Br)N(C)C(=O)C(C)O3)cc1Cl (centres unmarked) [BC19797]
17,≤ 4.60,CC1Oc2cc(S(=O)(=O)Nc3cccc(Cl)c3)c(Br)cc2N(C)C1=O (centres unmarked) [BC19905]
18,≤ 4.60,CC1Oc2cc(S(=O)(=O)Nc3ccc(F)c(F)c3)c(Br)cc2NC1=O (centres unmarked) [BC19284]
19,≤ 4.60,O=C1NCCOc2c1cc(Br)cc2S(=O)(=O)Nc1ccc(F)cc1 [BC19549]
20,≤ 4.60,O=C1COc2c(cc(Br)cc2S(=O)(=O)Nc2ccc(C(F)(F)F)cc2Cl)N1 [BC19384]
21,≤ 4.60,CCC1Oc2c(cc(Br)cc2S(=O)(=O)NC2CCCCC2)NC1=O (centres unmarked) [BC19233]
